{"source": "patent US20250034089A1", "about": "“TETRAHYDROCARBAZOLE COMPOUND, AND PHARMACEUTICAL COMPOSITION AND USE THEREOF” (NAIN BIOTECH (HANGZHOU) CO., LTD., priority 2021, published 2025)", "key": {"[1]": {"system": "Huh7 cells", "assay": "Tumor microspheres cultured in Huh7 cells", "type": "cell-based, human", "conditions": "Huh7, 1 μM, 48 hours", "method": "(§1) • 1) Cell sources: cervical cancer cells HeLa and Caski, liver cancer cells Hep3B and Huh7 were all purchased from the Chinese Academy of Sciences cell bank (Shanghai). • 2) Tumor microsphere culture: The specific culture method for tumor microspheres can be found in the literature (Cheng J et al. Tryptophan derivatives regulate the transfer of Oct4 in stem-like cancer cells. Nat Commun. 2015, 6:7209). Each tumor cell was cultured separately in a medium containing 2% B27, 10 ng/ml BFGF, 5 ng/ml EGF, and 10 ng/ml LIF to form CSC rich tumor microspheres. • 3) Cell dosing treatment: HeLa cell lines and Huh7 cell lines were inoculated in a 6-well plate containing the aforementioned culture medium at a density of 200 cells per well, while Hep3B cell lines and Caski cell lines were inoculated in a 6-well plate containing the aforementioned culture medium at a density of 2000 cells per well. KZT-A5 or AH057 at concentrations of 1 μM or 10 μM was added, and the morphology of tumor microspheres was observed, photographed and recorded after 48 hours of treatment."}, "[2]": {"system": "CaSki (human cervical cancer intestinal metastatic cells)", "assay": "In vitro proliferation inhibition (CCK-8), CaSki", "type": "cell-based", "conditions": "Ca-Ski, 72 hours, CCK-8, average of three wells in one test", "text": "(§2) • 1) Cell sources: HeLa (human cervical cancer cells), CaSki (human cervical cancer intestinal metastasis cells), Huh7 (human liver cancer cells), HepG2 (human liver cancer cells), Hep3B (human liver cancer cells) were purchased from the Chinese Academy of Sciences cell bank (Shanghai); LO2 (human normal liver cells) and HcerEpic (human normal uterine epithelial cells) were from ATCC. • 2) Cell culture and passage: The cell culture and passage method is the same as that described in “The inhibitory effect of compounds on the OCT4 protein in tumor stem cells (CSC)”. • 3) Cell dosing treatment: The each type of cells mentioned above was digested, counted, and inoculated in each well of the 96 well cell culture plate (#3988, Corning) at a density of 5000 cells/200 μl culture medium. […] Then, the original culture medium was replaced with complete culture medium containing gradient diluted KZT-A5 (each concentration with 3 repeated wells) as well as DMSO (#D5879, Sigma Aldrich) solvent control, and they are cultured for additional 72 hours. • 4) Pharmacodynamic test and statistics: First, the morphology of cells treated with the above compounds was observed, photographed and recorded using an inverted phase contrast microscope (X71, Olympus). […] Then the OD450 nm absorbance value (OD value) was measured on a multifunctional enzyme-linked immunosorbent assay (168-1130, Bio Rad). […]"}, "[3]": {"system": "HepG2 (human liver cancer cells)", "assay": "In vitro proliferation inhibition (CCK-8), HepG2", "type": "cell-based", "conditions": "for IC50: Homo sapiens", "text": "(§3) • 1) Cell sources: HeLa (human cervical cancer cells), CaSki (human cervical cancer intestinal metastasis cells), Huh7 (human liver cancer cells), HepG2 (human liver cancer cells), Hep3B (human liver cancer cells) were purchased from the Chinese Academy of Sciences cell bank (Shanghai); LO2 (human normal liver cells) and HcerEpic (human normal uterine epithelial cells) were from ATCC. • 2) Cell culture and passage: The cell culture and passage method is the same as that described in “The inhibitory effect of compounds on the OCT4 protein in tumor stem cells (CSC)”. • 3) Cell dosing treatment: The each type of cells mentioned above was digested, counted, and inoculated in each well of the 96 well cell culture plate (#3988, Corning) at a density of 5000 cells/200 μl culture medium. They were cultured in a cell culture incubator at 37° C. and 5% CO2 for 24 hours to allow the cells to fully adherent to the wall. Then, the original culture medium was replaced with complete culture medium containing gradient diluted KZT-A5 (each concentration with 3 repeated wells) as well as DMSO (#D5879, Sigma Aldrich) solvent control, and they are cultured for additional 72 hours. • 4) Pharmacodynamic test and statistics: First, the morphology of cells treated with the above compounds was observed, photographed and recorded using an inverted phase contrast microscope (X71, Olympus). Then the original culture medium was replaced with phenol red free culture medium containing CCK-8 detection reagent (#E606335, Shanghai Shenggong) respectively, and they are cultured in the incubator for additional 2 hours. Then the OD450 nm absorbance value (OD value) was measured on a multifunctional enzyme-linked immunosorbent assay (168-1130, Bio Rad). After the cells were treated with the test compound, the equations for calculating the cell survival rate or cell growth rate is: survival rate=GD value of the treated group/OD value of the control group×100%; the equations for calculating the growth inhibition rate of compounds on cell proliferation is: inhibition rate=(OD value of control group−OD value of the treated group)/OD value of control group×100%. Further, the IC50 of each compound was calculated in SPSS based on the inhibition rate. […]"}, "[4]": {"system": "HeLa (human cervical cancer cells)", "assay": "In vitro proliferation inhibition (CCK-8), HeLa", "type": "cell-based", "text": "(§4) • 1) Cell sources: HeLa (human cervical cancer cells), CaSki (human cervical cancer intestinal metastasis cells), Huh7 (human liver cancer cells), HepG2 (human liver cancer cells), Hep3B (human liver cancer cells) were purchased from the Chinese Academy of Sciences cell bank (Shanghai); LO2 (human normal liver cells) and HcerEpic (human normal uterine epithelial cells) were from ATCC. • 2) Cell culture and passage: The cell culture and passage method is the same as that described in “The inhibitory effect of compounds on the OCT4 protein in tumor stem cells (CSC)”. • 3) Cell dosing treatment: The each type of cells mentioned above was digested, counted, and inoculated in each well of the 96 well cell culture plate (#3988, Corning) at a density of 5000 cells/200 μl culture medium. They were cultured in a cell culture incubator at 37° C. and 5% CO2 for 24 hours to allow the cells to fully adherent to the wall. Then, the original culture medium was replaced with complete culture medium containing gradient diluted KZT-A5 (each concentration with 3 repeated wells) as well as DMSO (#D5879, Sigma Aldrich) solvent control, and they are cultured for additional 72 hours. • 4) Pharmacodynamic test and statistics: First, the morphology of cells treated with the above compounds was observed, photographed and recorded using an inverted phase contrast microscope (X71, Olympus). Then the original culture medium was replaced with phenol red free culture medium containing CCK-8 detection reagent (#E606335, Shanghai Shenggong) respectively, and they are cultured in the incubator for additional 2 hours. Then the OD450 nm absorbance value (OD value) was measured on a multifunctional enzyme-linked immunosorbent assay (168-1130, Bio Rad). After the cells were treated with the test compound, the equations for calculating the cell survival rate or cell growth rate is: survival rate=GD value of the treated group/OD value of the control group×100%; the equations for calculating the growth inhibition rate of compounds on cell proliferation is: inhibition rate=(OD value of control group−OD value of the treated group)/OD value of control group×100%. Further, the IC50 of each compound was calculated in SPSS based on the inhibition rate.\n(§5) • 1) Cell sources: Huh7 (human liver cancer cells), HepG2 (human liver cancer cells), Hep3B (human liver cancer cells), and HeLa (human cervical cancer cells) were all purchased from the Chinese Academy of Sciences cell bank (Shanghai), while LO2 (human normal liver cells) was obtained from ATCC. • 2) Cell culture and passage: The cell culture and passage method is the same as that described in “The inhibitory effect of compounds on human tumor cell lines from different tissue sources (1)”. • 3) Cell dosing treatment: The cell dosing treatment method is the same as that described in “The inhibitory effect of compounds on human tumor cell lines from different tissue sources (1). • 4) Pharmacodynamic test and statistics: The pharmacodynamic test and statistics method is the same as that described in “The inhibitory effect of compounds on human tumor cell lines from different tissue sources (1)”. The IC50 value data of the compound on each type of tumor cells is the average±standard deviation of three wells in one test."}, "[5]": {"system": "Huh7 (human liver cancer cells)", "assay": "In vitro proliferation inhibition (CCK-8), Huh7", "type": "cell-based", "text": "as §4, §5"}, "[6]": {"system": "Hep3B (human liver cancer cells)", "assay": "In vitro proliferation inhibition (CCK-8), Hep3B", "type": "cell-based", "conditions": "for IC50: Homo sapiens", "text": "as §3"}, "[7]": {"system": "HcerEpic (human normal uterine epithelial cells)", "assay": "In vitro proliferation inhibition (CCK-8), HcerEpic", "type": "cell-based", "conditions": "Epithelial cell, 72 hours, CCK-8, average of three wells in one test", "text": "as §2"}, "[8]": {"system": "tumor microspheres", "assay": "Generation of tumor microspheres by tumor cells (HeLa, Caski, Hep3B, Huh7)", "type": "cell-based, human", "conditions": "1 or 10 μM, 48 hours, FIG. 5", "method": "as §1"}, "[9]": {"conditions": "72 hours, CCK-8, average of three wells in one test"}}}
{"smiles": "COc1cc(/C=C2\\CCc3c([nH]c4ccc(C)cc34)C2=O)ccc1O", "note": "[KZT-A5]", "values": [{"measurement": "inhibitory effect on tumor microspheres compared with AH057", "setting": "[1]", "result": "more significant inhibitory effect compared with the same concentration of AH057"}, {"measurement": "IC50", "setting": "[2]", "result": 6.38, "unit": "µM"}, {"measurement": "inhibitory effect on viability compared with AH057", "setting": "[3]; HepG2, FIG. 6", "result": "more significant inhibitory effect"}, {"measurement": "IC50", "setting": "[3]; HepG2, 72 hours, CCK-8, average of three wells in one test", "result": 3.13, "unit": "µM"}, {"measurement": "IC50", "setting": "[3]; HepG2, test (2), average±standard deviation of three wells", "result": "3.16 ± 0.08", "unit": "µM"}, {"measurement": "IC50", "setting": "[4]; [9]", "result": 0.57, "unit": "µM"}, {"measurement": "IC50", "setting": "[4]; Homo sapiens, 72 h, CCK-8, average of three wells in one test", "result": "< 1", "unit": "µM"}, {"measurement": "IC50", "setting": "[4]; Homo sapiens, test (2), average±standard deviation of three wells", "result": "0.7 ± 0.01", "unit": "µM"}, {"measurement": "inhibitory effect compared with AH057", "setting": "[4]; Table 3", "result": "comparable to AH057"}, {"measurement": "IC50", "setting": "[5]; Homo sapiens, Huh-7, 72 h, Huh7, 72 hours, CCK-8, average of three wells in one test", "result": "< 1", "unit": "µM"}, {"measurement": "IC50", "setting": "[5]; Homo sapiens, Huh-7, Huh7, test (2), average±standard deviation of three wells", "result": "1.42 ± 0.12", "unit": "µM"}, {"measurement": "IC50", "setting": "[5]; Huh7, 72 hours, CCK-8, average of three wells in one test", "result": 0.8, "unit": "µM"}, {"measurement": "inhibitory effect on viability compared with AH057", "setting": "[5]; Huh7, FIG. 6", "result": "more significant inhibitory effect"}, {"measurement": "IC50", "setting": "[6]; [9]", "result": 36.6, "unit": "µM"}, {"measurement": "IC50", "setting": "[6]; test (2), average±standard deviation of three wells", "result": "23.5 ± 1.51", "unit": "µM"}, {"measurement": "inhibitory effect compared with AH057", "setting": "[6]; Table 3", "result": "comparable to AH057"}, {"measurement": "IC50", "setting": "[7]", "result": "> 100", "unit": "µM"}, {"measurement": "inhibition of generation of tumor microspheres", "setting": "[8]", "result": "dose-dependently inhibit the generation of tumor microspheres"}]}
